Results from BigSolDB 2.1.

CN1C(C(=O)Nc2ccccn2)=C(O)c2sc(Cl)cc2S1(=O)=O
Details | solubility (mole fraction)
in PEG-400, 298.15 K | 0.00855
in PEG-400, 303.15 K | 0.0101
in PEG-400, 308.15 K | 0.0114
in PEG-400, 313.15 K | 0.0129
in PEG-400, 323.15 K | 0.0169

solubility (mole fraction)
Details | in ethanol | in ethyl acetate | in ethylene glycol | in isopropanol | in n-butanol | in propylene glycol | in sec-butanol | in transcutol | in water
298.15 K | 8.43e-06 | 8.39e-05 | 0.000224 | 9.05e-06 | 1.36e-05 | 3.17e-05 | 2.99e-05 | 0.000317 | 2.91e-06
303.15 K | 1.16e-05 | 9.08e-05 | 0.000334 | 1.16e-05 | 1.55e-05 | 3.6e-05 | 3.59e-05 | 0.000382 | 4.12e-06
308.15 K | 1.45e-05 | 9.86e-05 | 0.000474 | 1.45e-05 | 1.75e-05 | 4.05e-05 | 4.19e-05 | 0.000462 | 5.52e-06
313.15 K | 1.98e-05 | 0.000107 | 0.000634 | 1.81e-05 | 1.99e-05 | 4.5e-05 | 4.78e-05 | 0.000552 | 7.27e-06
323.15 K | 3.22e-05 | 0.000121 | 0.00108 | 2.67e-05 | 2.39e-05 | 5.4e-05 | 6.58e-05 | 0.000743 | 1.19e-05
